Series [1] can be described thus: Permeability across Calu-3 monolayer. The class given is in vitro ADME. Conditions: human; Calu‐3 lung epithelial cells. The procedure:
subtraction and plotted using GraphPad Prism 8.4.2 (GraphPad Software, San Diego, CA, […]
USA). Solubility (S) was determined based on the First X value of AUC function using a […]
For the evaluation of combined phase I and phase II metabolic stability, the compound (1 μM) was incubated with 1 mg/mL pooled liver S9 fraction from the respective species (Xenotech), […]
2 mM NADPH, 1 mM UDPGA, 10 mM MgCl2, 5 mM GSH and 0.1 mM PAPS at 37 °C for […]
0, 5, 15, 30 or 60 min. The metabolic stability of Testosterone (1 μM) and verapamil (1 μM) […]
were determined in parallel to confirm the enzymatic activity of the S9 fraction. The […]
incubation was stopped by precipitation of S9 enzymes with 2 volumes of cold acetonitrile […]
containing internal standard (750 nM Diphenhydramine). Samples were stored on ice for 10 […]
Concentration of the remaining test compound at the different time points was analyzed by […]
Permeability of compound 4 and 17 was assessed in vitro with Calu-3 HTB-55 cell line (ATCC). […]
Pyruvate. […] TEER was monitored during the experiment and epithelial barriers were considered compromised if the TEER fell below 300 during 4 h of experiment duration. […] 50 µL of sample was mixed with 150 µL of ice-cold acetonitrile containing internal standard diphenhydramine (1 µM) and the concentration of compound was analyzed with LC-MS/MS. […]

In the next series the target is T1, β2 receptor (Homo sapiens, UniProt P07550).
T1 construct: Eurofins Discovery (SafetyScreen44 Panel, Cerep) P270
T1 sequence (P07550 whole entry): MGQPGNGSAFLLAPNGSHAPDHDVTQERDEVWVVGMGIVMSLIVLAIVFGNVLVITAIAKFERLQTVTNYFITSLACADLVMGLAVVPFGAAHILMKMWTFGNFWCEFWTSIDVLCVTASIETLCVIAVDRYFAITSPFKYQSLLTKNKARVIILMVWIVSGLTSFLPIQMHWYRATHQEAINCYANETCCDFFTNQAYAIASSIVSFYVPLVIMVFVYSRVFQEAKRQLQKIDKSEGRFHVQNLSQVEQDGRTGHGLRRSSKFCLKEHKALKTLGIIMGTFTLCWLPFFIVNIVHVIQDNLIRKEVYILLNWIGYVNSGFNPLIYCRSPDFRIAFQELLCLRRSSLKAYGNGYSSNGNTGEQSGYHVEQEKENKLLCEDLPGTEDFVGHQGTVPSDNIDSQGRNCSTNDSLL
Kind of series: CEREP off-target panel, antagonist radioligand. The class given is binding. To be noted: @10µM. The procedure:
5. In vitro ADME/T and Safety Pharmacology
5.1. CEREP off-targets assay
Experiments towards possible off-target effects were conducted following Eurofins Discovery protocol. Detailed information about the assays can be found in: https://www.eurofinsdiscoveryservices.com/catalogmanagement/viewitem/SafetyScreen44- […]
Table S3. Possible CEREP off-targets. entry off-target QSI 4 QSI 17 Assay
(%binding (%binding method
(§1) (1 picture or pasted object on this page, not shown here)

Series [2] deals with alkylquinolones PQS and HHQ in P. aeruginosa PA14. Kind of series: Alkylquinolone inhibition assay in PA14. It is filed as cell-based. To be noted: Pseudomonas aeruginosa. The procedure:
4. Secondary Activity Assays
4.1. Alkylquinolone Inhibition Assay
The inhibitory effect of the synthesized compounds on alkylquinolone production in PA was measured as previously described with the modification that wt PA14 was used instead of PA14pqsH.[6] Briefly, P. aeruginosa PA14 cultures were grown in the presence of DMSO as a control or DMSO solutions of inhibitors for 17 h. HHQ and PQS as well as HQNO were quantified from ethyl acetate extracts using 5,6,7,8-tetradeutero-2-heptyl-4(1H)-quinolone (HHQ-d4) as internal standard (IS). LC-ESI-MS/MS analysis was performed on a Dionex […]
as §1
Scientific, Waltham MA) with the following conditions: Zorbax Eclipse XDB 80 Å C18 5 µm 4.6 x 50 mm column (Agilent, Santa Clara, CA, USA); eluent A – H2O with 0.1% trifluoroacetic acid (TFA), 0.1% pentafluoropropionic acid (PFPA), 0.1% heptafluorobutyric acid (HFBA); eluent B – acetonitrile with 0.1% TFA, 0.1% PFPA, 0.1% HFBA; isocratic 50% A; flow – 0.7 mL/min. TSQ Quantum Access Max (Thermo Fisher Scientific, Waltham, MA, USA) instrument parameters: Spray voltage 3500 V, vaporizer temperature 370 °C, sheath gas pressure 35 psi, aux gas pressure 30 psi, capillary temperature 270 °C, collision pressure 1.5 mTorr, positive ionization mode. For AQ analyte reaction monitoring parameters […]
Data acquisition and quantification was performed using Xcalibur software with the use of a calibration curve relative to the area of the IS. IC50 values were calculated according to the procedure of the pyocyanin assay (see above).
Table S1: LC-ESI-MS/MS reaction monitoring parameters of AQ analytes in positive ionization mode. precursor product collision tube lens retention ion m/z ion m/z energy (V) offset (V) time (min)
Chemical and biological materials for in vitro assays: All chemicals were purchased from Sigma-Aldrich unless otherwise specified. Yeast extract was obtained from Fluka. Bacto™ Tryptone were obtained from BD Biosciences. Luria Bertani (LB) agar was obtained from Carl Roth. Gibco® PBS was obtained from Life Te chnologies. Purified water was prepared by a Milli-Q water purification system (Merk Millipore, Billerica, MA). The PA strain PA14 wild type (PA14 wt) was purchased from DSMZ, the German Collection of Microorganism and Cell Cultures GmbH (PA14 = DSMZ19882) and cultured in minimal proteose peptone glucose ammonium salt (PPGAS) medium. PPGAS was composed of 1 g/L NH4Cl, 1.5 g/L KCl, 19 g/L Tris-HCl, 10 g/L peptone, 5 g/L glucose and 0.1 g/L MgSO4∙7H2O. The pH value of the medium was adjusted to 7.2 ± 0.2 and sterilized before use. Agar solution was […]

The structures appear in SMILES notation. Where “and” joins values, the source holds several entries; their conditions need not be identical. Equal entries are not always repeated. Where two headings read alike, the source gives them in different places.

As to `COc1ccc(-n2cc(CNc3ccnc(C(F)(F)F)c3)nn2)cc1Cl` [Compound 17], in series [1], the Papp (in general, a coefficient for how fast a substance crosses the barrier) at 4 h was 11.4 ×10⁻⁶ cm/s. For the same compound, at β2 receptor, the “% binding, β2 receptor” value is 85.3% and 85%. Further, the half-maximal inhibitory concentration (IC50) (usually the concentration that inhibits the measured activity by half) in series [2] (PA14, read-out: IC50(HHQ)) came out at 1320 ± 390 nM; in series [2] (PA14, read-out: IC50(PQS)), 2080 ± 370 nM.

As for `FC(F)(F)c1cc(NCc2cn(-c3ccc(Oc4ccccc4)cc3)nn2)ccn1` [Compound 4], in series [1], the Papp at 4 h was found to be 5.3 ×10⁻⁶ cm/s. Also, at β2 receptor, the “% binding, β2 receptor” value was 18.03% and 18%. The half-inhibitory concentration (IC50) in series [2] (PA14, read-out: IC50(HHQ)) turned out to be 370 ± 70 nM; in series [2] (PA14, read-out: IC50(PQS)), 1130 nM.

These data come from publication PMC8224453, “A New PqsR Inverse Agonist Potentiates Tobramycin Efficacy to Eradicate Pseudomonas aeruginosa Biofilms” (Advanced Science, 2021).
